The values that follow come from patent US20190210996A1, “NOVEL COMPOUNDS” (GLAXOSMITHKLINE INTELLECTUAL PROPERTY DEVELOPMENT LIMITED, priority 2016, published 2019).

In the test the target is T1, TEC (Homo sapiens, UniProt P42680).
T1 construct: endogenous in cells; host or cells: THP-1
T1 sequence (P42680 1-631): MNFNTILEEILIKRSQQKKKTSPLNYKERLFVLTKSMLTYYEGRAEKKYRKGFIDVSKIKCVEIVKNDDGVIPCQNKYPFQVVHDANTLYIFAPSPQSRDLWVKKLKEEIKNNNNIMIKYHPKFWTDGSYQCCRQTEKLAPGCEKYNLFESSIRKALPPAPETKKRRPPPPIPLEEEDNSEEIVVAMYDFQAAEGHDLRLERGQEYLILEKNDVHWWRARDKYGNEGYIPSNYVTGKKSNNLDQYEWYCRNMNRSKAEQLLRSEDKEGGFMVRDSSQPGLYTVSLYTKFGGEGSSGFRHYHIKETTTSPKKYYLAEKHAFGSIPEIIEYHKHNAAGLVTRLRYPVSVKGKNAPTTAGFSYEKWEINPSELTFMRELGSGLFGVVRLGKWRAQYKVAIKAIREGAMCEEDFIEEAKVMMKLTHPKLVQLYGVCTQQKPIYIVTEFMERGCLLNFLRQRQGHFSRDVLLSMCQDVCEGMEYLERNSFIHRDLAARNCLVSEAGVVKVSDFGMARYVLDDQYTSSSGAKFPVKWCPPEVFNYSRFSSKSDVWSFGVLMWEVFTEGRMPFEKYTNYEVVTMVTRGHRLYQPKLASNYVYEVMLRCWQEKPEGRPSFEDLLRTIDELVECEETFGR
The test can be described thus: Expression proteomics in THP-1 cells: TEC protein level. It counts as cell-based. The protocol:
THP-1 cells were seeded at a concentration of 3×10^6 cells in T175 flasks with 60 mL growth medium (RPMI1640+10% FBS). […] of a 10× compound solution prepared in growth medium (DMSO), CEREBLON_PROTAC) was added and the cells were treated for the indicated time points (6 or 24 h) at 37° C., 5% CO2. For harvesting the cells were collected into falcon tubes on ice, centrifuged and washed twice in cold PBS (Life technologies). After the last washing step the supernatant was removed and the pellets were snap-frozen in liquid N2 and stored at −80° C. and lysed in 2% SDS for 3 min at 95° C. in a thermomixer (Thermo Fisher Scientific), followed by digestion of DNA with Benzonase at 37° C. for 1.5 h. Lysate was cleared by centrifugation an protein concentration in supernatant was determined by BCA assay.
Leukemia 25, 89-100 (2011).
Samples were dried in vacuo and resuspended in 0.05% trifluoroacetic acid in water. Of the sample, 50% was injected into an Ultimate3000 nanoRLSC (Dionex, Sunnyvale, Calif.) coupled to a Q Exactive HF (Thermo Fisher Scientific). Peptides were trapped on a 5 mm×300 μm C18 column (Pepmap100, 5 μm, 300 Å, Thermo Fisher Scientific) in water with 0.05% TFA at 60° C. Separation was performed on custom 50 cm×[…] (ID) reversed-phase columns (Reprosil) at 55° C. Gradient elution was performed from 2% acetonitrile to 40% acetonitrile in 0.1% formic acid and 3.5% DMSO over 2 hours. Samples were online injected into Q-Exactive HF mass spectrometers operating with a data-dependent top 10 method. MS spectra were acquired by using 60.000 resolution and an ion target of 3×10^6. Higher energy collisional dissociation (HCD) scans were performed with 35% NCE at 30.000 resolution (at m/z 200), and the ion target settings was set to 2×10^5 so as to avoid coalescence (Werner, T. et al. Ion Coalescence of Neutron Encoded TMT 10-Plex Reporter Ions. Anal. Chem. 86, 3594-3601 (2014).
The first search was performed with 30 parts per million mass tolerance for peptide precursors and 30 mD (HCD) mass tolerance for fragment ions followed by a final search using recalibrated data with a 10 parts per million mass tolerance for peptide precursors and 20 mD (HCD) mass tolerance for fragment ions. Carbamidomethylation of cysteine residues and TMT modification of lysine residues were set as fixed modifications and methionine oxidation, and N-terminal acetylation of proteins and TMT modification of peptide N-termini were set as variable modifications. […]
Nat Biotech 29, 255-265 (2011). this measure is referred to as ion area Savitski, M. M. et al. Delayed Fragmentation and Optimized Isolation Width Settings for Improvement of Protein Identification and Accuracy of Isobaric Mass Tag Quantification on Orbitrap-Type Mass Spectrometers. […]

`CNC(=O)c1ccccc1Nc1nc(Nc2ccc(N3CCN(CCOCCOCCOCCOCC(=O)Nc4cccc5c4CN(C4CCC(=O)NC4=O)C5=O)CC3)cc2)ncc1Cl.O=CO` (stereo not shown) [CEREBLON_PROTAC, 14-(4-(4-((5-Chloro-4-((2-(methylcarbamoyl)phenyl)amino)pyrimidin-2-yl)amino)phenyl)piperazin-1-yl)-N-(2-(2,6-dioxopiperidin-3-yl)-1-oxoisoindolin-4-yl)-3,6,9,12-tetraoxatetradecan-1-amide formate]: the “log2 rel. fc. to vehicle control” value reads like this: (24 h 0.1 μM, n = 1) −1.83; (24 h 0.1 μM, n = 2) −2.38; (24 h 1 μM, n = 1) −1.74; (24 h 1 μM, n = 2) −1.94.
